The pIC50 is the IC50 on a negative log10 scale, so that one unit is a factor of ten. The low end stands for a high IC50, the high end for a low IC50. A word on the melting point: it is the temperature of the solid-liquid transition.

Each structure is given as a SMILES string. pIC50: −log10 of the molar value. Read-outs that look alike come from different tables or passages of the source.

Consider four compounds from patent publication US10052320B2, “Substituted quinoxalines as FGFR kinase inhibitors” (ASTEX THERAPEUTICS LIMITED, priority 2011, dated 2018).

Data set [1] addresses KDR (h) (VEGFR2) (Homo sapiens, UniProt P35968). Description: KDR (VEGFR2) (enzymatic assay), TR-FRET. Type of data set: biochemical. On the procedure: KDR (VEGFR2) (Enzymatic Assay)
In a final reaction volume of 30 μL, KDR (h) (150 ng/ml) was incubated with 50 mM HEPES pH 7.5, 6 mM MnCl2, 1 mM DTT, 0.1 mM Na3VO4, 0.01% Triton-X-100, 500 nM Btn-Flt3 and 3 μM ATP in the presence of compound (1% DMSO final). After incubation for 120 minutes at room temperature the reaction was stopped with 2.27 nM EU-anti P-Tyr, 7 mM EDTA, 31.25 nM SA-XL-665 and 0.02% BSA which was present for 60 minutes at room temperature. Time-Resolved Fluorescence Resonance Energy Transfer (TR-FRET) signal (ex340 nm. Em 620 nm, em 655 nm) was measured afterwards and results are expressed in RFU (Relative Fluorescence Units).

For data set [2], the target named is Ba/F3-KDR-transfected cells (Homo sapiens, UniProt P35968). As to the kind of experiment: Ba/F3-KDR (minus IL3) cellular proliferation assay, Alamar Blue. Type of data set: cell-based. On the procedure:
Ba/F3-KDR (Minus IL3 or Plus IL3) (Cellular Proliferation Assay)
(§1) In a 384 well plate, 100 nl of compound dilution in DMSO was sprayed before adding 50 μl cell culture medium (phenol red free RPMI-1640, 10% FBS, 2 mM L-Glutamine and 50 μg/ml Gentamycin) containing 20000 cells per well of Ba/F3-KDR-transfected cells. Cells were put in an incubator at 37° C. and 5% CO2. After 24 hours, 10 μl of Alamar Blue solution (0.5 mM K3Fe(CN)6, 0.5 mM KaFe(CN)6, 0.15 mM Resazurin and 100 mM Phosphate Buffer) was added to the wells, incubated for 4 hours at 37° C. and 5% CO2 before RFU's (Relative Fluorescence Units) (ex. 540 nm., em. 590 nm.) were measured in a flurorescence plate reader.
(§2) As a counterscreen the same experiment was performed in the presence of 10 ng/ml murine IL3.
as §1, with “a 96” for “a 384”, “plate, 180” for “plate, 100 nl of compound dilution in DMSO was sprayed before adding 50”, “containing 10000” for “containing 20000”, “Ba/F3-KDR-transfected cells were pipette and 20 μl of compound dilution in DMSO was added.” for “Ba/F3-KDR-transfected cells.”, “hours, 40” for “hours, 10”, “CO2” for “CO2 before”
On the technique in general: Resazurin is reduced to fluorescent resorufin, in cell work by metabolically active cells.

Data set [3] addresses T1, Ba/F3-Flt3-transfected cells (Homo sapiens, UniProt P36888, cells depend on it, form not given).
T1 sequence (P36888 1-993): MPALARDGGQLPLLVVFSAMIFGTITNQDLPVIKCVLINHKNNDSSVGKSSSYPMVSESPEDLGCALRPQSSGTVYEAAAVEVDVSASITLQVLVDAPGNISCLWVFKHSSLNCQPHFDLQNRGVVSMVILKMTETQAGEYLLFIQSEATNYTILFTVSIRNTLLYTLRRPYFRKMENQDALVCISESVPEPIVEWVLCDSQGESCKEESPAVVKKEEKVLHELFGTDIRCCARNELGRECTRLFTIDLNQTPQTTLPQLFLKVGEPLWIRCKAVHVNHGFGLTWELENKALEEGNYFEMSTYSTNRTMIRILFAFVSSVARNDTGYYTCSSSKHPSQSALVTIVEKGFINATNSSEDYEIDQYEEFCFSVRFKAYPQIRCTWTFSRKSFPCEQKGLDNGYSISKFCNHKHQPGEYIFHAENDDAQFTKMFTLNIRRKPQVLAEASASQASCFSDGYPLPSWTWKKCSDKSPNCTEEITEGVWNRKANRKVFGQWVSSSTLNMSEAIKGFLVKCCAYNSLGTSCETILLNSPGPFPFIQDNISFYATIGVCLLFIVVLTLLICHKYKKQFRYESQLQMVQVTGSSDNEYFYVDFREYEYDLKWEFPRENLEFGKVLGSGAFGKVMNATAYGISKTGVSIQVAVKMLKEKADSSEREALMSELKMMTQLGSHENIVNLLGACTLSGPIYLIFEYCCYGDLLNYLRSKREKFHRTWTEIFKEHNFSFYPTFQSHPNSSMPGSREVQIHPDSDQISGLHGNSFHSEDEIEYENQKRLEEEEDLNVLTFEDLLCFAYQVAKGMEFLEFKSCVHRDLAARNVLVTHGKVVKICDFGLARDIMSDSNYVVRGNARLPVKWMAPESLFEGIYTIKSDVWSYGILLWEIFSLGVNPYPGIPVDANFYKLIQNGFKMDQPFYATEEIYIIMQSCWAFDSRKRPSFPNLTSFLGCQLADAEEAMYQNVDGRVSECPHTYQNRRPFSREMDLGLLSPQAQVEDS
Description: Ba/F3-Flt3 (minus IL3) cellular proliferation assay, Alamar Blue. Type of data set: cell-based. On the procedure:
(§3) Ba/F3-Flt3 (Minus IL3 or Plus IL3) (Cellular Proliferation Assay)
Cells were put in an incubator at 37° C. and 5% CO2. After 24 hours, 10 μl of Alamar Blue solution (0.5 mM K3Fe(CN)6, 0.5 mM KaFe(CN)6, 0.15 mM Resazurin and 100 mM Phosphate Buffer) was added to the wells, incubated for 4 hours at 37° C. and 5% CO2 before RFU's (Relative Fluorescence Units) (ex. 540 nm., em. 590 nm.) were measured in a flurorescence plate reader. […]
as §1, with “a 96” for “a 384”, “plate, 180” for “plate, 100 nl of compound dilution in DMSO was sprayed before adding 50”, “containing 10000” for “containing 20000”, “of Ba/F3-Flt3-transfected cells were pipette and 20 μl of compound dilution in DMSO was added.” for “of Ba/F3-KDR-transfected cells.”, “hours, 40” for “hours, 10”

Data set [4] relates to Ba/F3-Flt3-transfected cells in the presence of 10 ng/ml murine IL3. As to the kind of experiment: Ba/F3-Flt3 (plus IL3) cellular proliferation counterscreen, Alamar Blue. Type of data set: cell-based. Particulars: Mus musculus, read-out: BAF3-FLT3 (PLUS IL3) 96 well pIC50 (converted).
Data set [5] concerns Ba/F3-FGFR1-transfected cells in the presence of 10 ng/ml murine IL3. Description: Ba/F3-FGFR1 (plus IL3) cellular proliferation counterscreen, Alamar Blue. Particulars: Mus musculus; plus IL3, 384 well; read-out: BAF3-FGFR 1 (PLUS IL3) 384 well pIC50 (converted). Type of data set: cell-based. On the procedure: Ba/F3-FGFR1 (Minus IL3 or Plus IL3) (Cellular Proliferation Assay)
as §1, with “Ba/F3-FGFR1-transfected” for “Ba/F3-KDR-transfected”
as §2
as §1, with “a 96” for “a 384”, “plate, 180” for “plate, 100 nl of compound dilution in DMSO was sprayed before adding 50”, “containing 10000” for “containing 20000”, “of Ba/F3-FGFR1-transfected cells were pipette and 20 μl of compound dilution in DMSO was added.” for “of Ba/F3-KDR-transfected cells.”, “hours, 40” for “hours, 10”
(In general: The purpose of a counterscreen is to sort out artefacts and off-target activity.)

For data set [6], the system named is Ba/F3-Flt3-transfected cells in the presence of 10 ng/ml murine IL3. Description: Ba/F3-Flt3 (plus IL3) cellular proliferation counterscreen, Alamar Blue. Type of data set: cell-based. Particulars: Mus musculus; plus 10 ng/ml murine IL3; read-out: BAF3-FLT3 (PLUS IL3) 384 well pIC50 (converted). On the procedure: as §3
as §1, with “Ba/F3-Flt3-transfected” for “Ba/F3-KDR-transfected”
as §2
as §1, with “a 96” for “a 384”, “plate, 180” for “plate, 100 nl of compound dilution in DMSO was sprayed before adding 50”, “containing 10000” for “containing 20000”, “of Ba/F3-Flt3-transfected cells were pipette and 20 μl of compound dilution in DMSO was added.” for “of Ba/F3-KDR-transfected cells.”, “hours, 40” for “hours, 10”

Sequence of KDR (h) (VEGFR2) (P35968 20-1356): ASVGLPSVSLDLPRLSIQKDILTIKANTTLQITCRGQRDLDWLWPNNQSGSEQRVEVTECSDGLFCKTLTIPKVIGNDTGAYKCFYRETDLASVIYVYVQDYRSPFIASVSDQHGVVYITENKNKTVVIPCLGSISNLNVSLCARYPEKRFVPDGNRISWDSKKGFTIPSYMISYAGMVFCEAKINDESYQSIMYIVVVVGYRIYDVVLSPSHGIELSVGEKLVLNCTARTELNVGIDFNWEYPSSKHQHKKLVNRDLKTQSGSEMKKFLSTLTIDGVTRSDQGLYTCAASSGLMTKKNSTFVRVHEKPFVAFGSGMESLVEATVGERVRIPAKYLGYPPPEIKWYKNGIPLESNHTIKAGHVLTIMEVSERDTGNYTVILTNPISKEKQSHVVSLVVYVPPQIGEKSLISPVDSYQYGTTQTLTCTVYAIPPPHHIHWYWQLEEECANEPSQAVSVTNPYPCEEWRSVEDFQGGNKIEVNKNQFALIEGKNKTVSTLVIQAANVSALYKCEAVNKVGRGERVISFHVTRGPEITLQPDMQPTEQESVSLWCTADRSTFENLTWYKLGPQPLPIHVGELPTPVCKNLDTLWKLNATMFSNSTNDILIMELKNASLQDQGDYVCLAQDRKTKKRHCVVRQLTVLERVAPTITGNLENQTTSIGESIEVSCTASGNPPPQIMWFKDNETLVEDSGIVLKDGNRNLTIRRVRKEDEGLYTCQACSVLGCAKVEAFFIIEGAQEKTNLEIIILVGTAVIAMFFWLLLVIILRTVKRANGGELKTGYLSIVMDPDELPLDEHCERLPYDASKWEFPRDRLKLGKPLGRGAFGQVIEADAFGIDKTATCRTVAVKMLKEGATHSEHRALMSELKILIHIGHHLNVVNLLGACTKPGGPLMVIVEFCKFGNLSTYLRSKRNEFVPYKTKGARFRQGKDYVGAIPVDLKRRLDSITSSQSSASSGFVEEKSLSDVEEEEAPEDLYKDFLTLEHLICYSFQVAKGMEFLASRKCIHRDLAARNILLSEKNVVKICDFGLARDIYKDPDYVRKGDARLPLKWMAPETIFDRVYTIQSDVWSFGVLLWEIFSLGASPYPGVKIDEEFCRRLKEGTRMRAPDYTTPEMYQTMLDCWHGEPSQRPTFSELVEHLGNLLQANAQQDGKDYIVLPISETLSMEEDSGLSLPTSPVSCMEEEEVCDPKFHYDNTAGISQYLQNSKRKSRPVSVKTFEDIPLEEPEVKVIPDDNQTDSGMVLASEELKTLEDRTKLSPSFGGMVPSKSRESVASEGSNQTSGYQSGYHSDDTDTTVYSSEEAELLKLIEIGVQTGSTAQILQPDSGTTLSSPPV
Sequence of Ba/F3-KDR-transfected cells (P35968 whole entry, change not shown): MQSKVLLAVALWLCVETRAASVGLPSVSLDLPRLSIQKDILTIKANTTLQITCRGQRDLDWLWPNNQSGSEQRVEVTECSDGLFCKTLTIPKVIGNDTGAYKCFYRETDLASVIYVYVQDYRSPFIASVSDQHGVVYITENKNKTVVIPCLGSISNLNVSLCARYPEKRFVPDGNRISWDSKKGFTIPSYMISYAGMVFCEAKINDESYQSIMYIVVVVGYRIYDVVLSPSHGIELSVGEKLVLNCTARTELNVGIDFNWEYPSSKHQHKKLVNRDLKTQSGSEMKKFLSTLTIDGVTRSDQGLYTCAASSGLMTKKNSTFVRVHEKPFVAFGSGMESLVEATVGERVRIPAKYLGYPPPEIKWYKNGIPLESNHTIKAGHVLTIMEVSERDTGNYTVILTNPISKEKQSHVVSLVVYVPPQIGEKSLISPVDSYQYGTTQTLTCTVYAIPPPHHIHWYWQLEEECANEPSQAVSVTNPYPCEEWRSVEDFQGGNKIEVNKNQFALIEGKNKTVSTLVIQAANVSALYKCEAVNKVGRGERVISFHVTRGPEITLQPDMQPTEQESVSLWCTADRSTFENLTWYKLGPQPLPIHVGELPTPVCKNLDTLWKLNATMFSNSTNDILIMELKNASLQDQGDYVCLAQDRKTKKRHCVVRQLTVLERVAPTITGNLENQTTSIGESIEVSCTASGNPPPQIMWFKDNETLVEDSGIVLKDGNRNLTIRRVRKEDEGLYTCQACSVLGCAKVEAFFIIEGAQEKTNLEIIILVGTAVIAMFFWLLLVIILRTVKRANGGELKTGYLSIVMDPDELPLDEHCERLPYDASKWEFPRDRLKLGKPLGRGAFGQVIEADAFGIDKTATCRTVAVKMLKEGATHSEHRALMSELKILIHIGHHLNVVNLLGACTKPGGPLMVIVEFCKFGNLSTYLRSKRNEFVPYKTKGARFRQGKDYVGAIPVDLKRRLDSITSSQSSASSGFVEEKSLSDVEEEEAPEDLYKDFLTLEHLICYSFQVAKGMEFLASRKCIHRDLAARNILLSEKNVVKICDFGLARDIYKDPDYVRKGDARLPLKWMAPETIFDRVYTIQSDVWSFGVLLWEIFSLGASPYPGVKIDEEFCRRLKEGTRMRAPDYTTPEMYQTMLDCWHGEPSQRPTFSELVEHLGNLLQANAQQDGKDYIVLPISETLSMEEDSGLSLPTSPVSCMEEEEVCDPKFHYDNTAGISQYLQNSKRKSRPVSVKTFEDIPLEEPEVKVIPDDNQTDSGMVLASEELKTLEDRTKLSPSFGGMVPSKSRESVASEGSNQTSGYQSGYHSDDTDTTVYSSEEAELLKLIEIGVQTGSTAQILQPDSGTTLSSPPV

`COc1cc(OC)cc(N(CC2CC2)c2ccc3ncc(-c4ccncc4)nc3c2)c1` [Compound 89] registered a melting point of 105 °C. In data set [1], this compound had a pIC50 of 5.72. Further, the “BAF3-KDR (MIN IL3) 384 well pIC50” value in data set [2] (minus IL3, 384 well) was under 5. In addition, the “BAF3-FLT3 (MIN IL3) 96 well pIC50” value in data set [3] (minus IL3, 96 well) was under 5. Moreover, the “BAF3-FLT3 (MIN IL3) 384 well pIC50” value in data set [3] (minus IL3, 384 well) is listed as under 5. In addition, the IC50 in data set [4] (plus IL3, 96 well) was over 10 µM.

`COc1cc(OC)cc(N(CCCO)c2ccc3ncc(-c4cnc(OC)nc4)nc3c2)c1` [Compound 141] gave a pIC50 in data set [1] of under 6.00. For the same compound, the IC50 in data set [5] and in data set [6] was over 10 µM each time. Further, the “BAF3-KDR (MIN IL3) 384 well pIC50” value in data set [2] (minus IL3) is listed as under 5.

In turn, `COc1cc(OC)cc(N(CC2CC2)c2ccc3ncc(-c4ccc(OC)nc4)nc3c2)c1` [Compound 91] showed a melting point of 116 °C. Also, the pIC50 in data set [1] is under 5.00. Moreover, in data set [2] (minus IL3, 384 well), the “BAF3-KDR (MIN IL3) 384 well pIC50” value is under 5. The “BAF3-FLT3 (MIN IL3) 96 well pIC50” value in data set [3] (minus IL3, 96 well) is on record as under 5. In addition, the “BAF3-FLT3 (MIN IL3) 384 well pIC50” value in data set [3] (minus IL3, 384 well) was under 5. Moreover, in data set [4] (plus IL3, 96 well), the IC50 is over 10 µM.

Take `COc1cc(OC)cc(N(CC2CC2)c2ccc3ncc(-c4ccc(N)nc4)nc3c2)c1` [Compound 94]: the melting point turned out to be 185 °C. Also, the pIC50 in data set [1] was 5.67. For the same compound, in data set [2] (minus IL3), the “BAF3-KDR (MIN IL3) 96 well pIC50” value is under 5 and the “BAF3-KDR (MIN IL3) 384 well pIC50” value is under 5. Further, in data set [3] (minus IL3), the “BAF3-FLT3 (MIN IL3) 96 well pIC50” value is given as under 5 and the “BAF3-FLT3 (MIN IL3) 384 well pIC50” value is under 5. For the same compound, in data set [4] (plus 10 ng/ml murine IL3), the IC50 is over 10 µM.
